One test concerns the target T1, Kv 1.5-potassium channel (Homo sapiens, UniProt P22460).
T1 construct: expressed in transfected cells
In words: In-vitro Kv 1.5-potassium channel-blocking effect (Rb+ outflow from CHO cells, atomic absorption spectroscopy). The format is cell-based. As to conditions: CHO cells stably expressing Kv 1.5, read-out: IC50 (Kv1.5-potassium channel-blocking effect, concentration of half-maximum inhibition). On the procedure: 1. In-Vitro Investigation of the Kv 1.5-Potassium Channel-Blocking Effect of the Substances
In this test model, a cell line of egg cells of the Chinese hamster (=“Chinese hamster oocytes”, “CHO”) is used which originates from a single cell and stably expresses the Kv 1.5-channel. By incubation overnight in a nutrient medium containing RbCl or a “loading buffer” (all values in mM: RbCl 5, NaCl 140, CaCl2 2, MgSO4 1, HEPES buffer 10, glucose 5) the aforementioned oocytes are loaded with Rb^+ under the influence of Na^+/K^+-ATPase. Thereafter, a portion of the oocytes is incubated as a reference standard in the absence of an inhibitor, while another portion of the oocytes is incubated in the presence of the respective inhibitory test substance of Formula I. Then the oocytes are depolarized by increasing the extracellular potassium-ion concentration, which causes the Kv 1.5-potassium channels of the oocytes to open. In the absence of an inhibitor, the Rb^+ ions flow through the Kv 1.5-potassium channels into the liquid surrounding them. In the presence of an inhibitory test substance of Formula I, on the other hand, the Rb^+ ions remain locked within the oocytes. The extent of the Kv 1.5-potassium channel-blocking effect of the test substances of Formula I is determined by measuring the Rb^+ ion concentration in the liquid surrounding them by means of atomic absorption spectroscopy against a reference standard.
Chinese hamster oocytes (see above) were cultivated in a known, RbCl-containing nutrient medium for CHO-cells and placed in the sample wells of a 96-sample capacity sample plate (“96 well plate”). The oocytes were allowed to grow overnight in order to obtain monolayers of the oocytes. Then the nutrient medium was pipetted off, and each sample well was washed three times with 100 μl portions of a preincubation buffer of low potassium-ion concentration (all values in mM: KCl 5, NaCl 140, CaCl2 2, MgSO4 1, HEPES buffer 10, glucose 5). Then 50 μl of a solution of the respective test substance (stock solution in DMSO, dilution with preincubation buffer, final concentration in the test batch 10 μM) or of the solvent (as negative controls) was added to each sample well and incubated for 10 min. in each case at room temperature. Then 50 μl of a stimulation buffer with elevated potassium-ion concentration (KCl 145 mM, NaCl 0 mM, otherwise as preincubation buffer) was added to each sample well and the samples were then incubated for a further 10 min. at room temperature. In each case, 80 μl of the liquid surrounding the oocytes from each sample well was then transferred separately to the sample wells of an analysis sample plate, and the Rb^+ ion concentration in the liquids was determined by atomic absorption spectroscopy. The test substances were each double-tested. The signal section which represented the Kv 1.5 component of the Rb^+ outflow was defined by using as positive control the known potassium channel blocker 4-AP in a high concentration (100×IC50 for the Kv 1.5 channel). This made it possible to determine which portion of the Rb^+ outflow was dependent on the influence of the 4-AP and therefore is to be assigned to the Kv 1.5 channel. For the substances which in the concentration of 10 μM used led to a reduction in the Rb^+ outflow of at least 50%, additional tests were performed with lower concentrations of the test substances in order to be able to determine the half-maximum effective concentration. In each case the concentration of half-maximum inhibition of the test substances of Formula I (IC50) was given as characteristic variable.

Test [1] relates to left atrium of rats' hearts. In words: Functional refractory period prolongation on isolated left atria of rats' hearts in vitro. Set-up: species or system rat (Sprague-Dawley). As to conditions: 10 μM. The method, then: 3. Investigation of the Functional Effectiveness of the Substances on the Atrium of Rats' Hearts in Vitro
In this test model it is determined to what extent the Kv 1.5-blocking substances of Formula I result in a prolongation of the functional refractory period in the left atrium of rats. The refractory period is the minimum possible elapsed time between the basic stimulus and additional stimulus in which a renewed contraction can be triggered. The extent of the prolongation of the functional refractory period is a measurement of the antiarrhythmic effectiveness of the substances according to the invention. The functional refractory period is determined by testing on the electrically stimulated preparation at what elapsed time from the preceding contraction a renewed contraction can be triggered by additional electrical stimuli.
The hearts were removed from freshly sacrificed rats (Sprague-Dawley, Charles-River, Germany). The left atria were isolated and fastened to force transducers in a temperature-controlled (30° C.), gasified (O2 95%, CO2 5%) organ bath which was filled with modified Tyrode solution (all values in mM: NaCl 137; KCl 2.7; CaCl2 1.8; MgCl2 0.8; NaHCO3 11.9; NaH2PO4 0.6; glucose 5). In order to trigger regular contractions, the preparations were electrically stimulated (rectangular pulses, pulse magnitude 3.5× threshold stimulus, pulse width 1.5 ms, frequency 1 Hz). Initially, the initial value of the functional refractory period was determined by applying extra pulses in addition to the basic stimulus, the elapsed time from the preceding basic stimulus being shortened until no further additional contraction could be triggered. Then the cumulative addition of increasing concentrations (0.1-10 μM) of the substances of Formula I took place at intervals of 20 min. each, the refractory period being determined again in each case 18 min. after the addition had taken place. Before the measurement, stock solutions of the test substances (3.2 and 0.32 mM in 100% DMSO) were prepared. In order to achieve the desired final concentrations of the substances (0.1-10 μM) in the organ bath (volume 100 ml), corresponding volumes of these stock solutions were then poured into the organ bath.
In each case the prolongation of the functional refractory period (FRP) in the left atrium of the rats' hearts in milliseconds observed after the addition of 10 μM of the respective substance of Formula I to the atrial preparations was given as characteristic variable.

pIC50: −log10 of the molar value.

T1 sequence (P22460 whole entry): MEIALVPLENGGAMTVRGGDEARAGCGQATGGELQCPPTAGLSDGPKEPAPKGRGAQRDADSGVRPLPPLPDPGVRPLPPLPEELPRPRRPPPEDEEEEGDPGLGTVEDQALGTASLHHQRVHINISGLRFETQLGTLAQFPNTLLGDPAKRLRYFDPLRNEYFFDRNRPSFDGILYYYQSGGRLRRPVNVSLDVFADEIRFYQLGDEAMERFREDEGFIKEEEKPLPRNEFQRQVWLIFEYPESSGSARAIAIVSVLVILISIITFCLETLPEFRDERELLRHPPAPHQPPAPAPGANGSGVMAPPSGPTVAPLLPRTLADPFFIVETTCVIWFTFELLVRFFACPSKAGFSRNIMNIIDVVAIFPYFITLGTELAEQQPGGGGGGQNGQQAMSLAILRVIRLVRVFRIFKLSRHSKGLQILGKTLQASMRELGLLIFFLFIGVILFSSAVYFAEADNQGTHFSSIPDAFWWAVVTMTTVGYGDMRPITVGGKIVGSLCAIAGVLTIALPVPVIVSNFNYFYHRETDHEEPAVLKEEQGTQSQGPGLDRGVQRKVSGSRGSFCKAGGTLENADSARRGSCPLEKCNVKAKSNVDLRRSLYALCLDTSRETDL

Consider `CC1(C)Oc2ccc(CC(=O)NC3CCCc4ccccc43)cc2C(NS(=O)(=O)c2cccc(F)c2)C1O` (mixture of isomers) [Example 13], for which, on Kv 1.5-potassium channel, the pIC50 was 5.19. This compound displayed an FRP prolongation in test [1] of 28 ms.
With `CCc1ccc(S(=O)(=O)N[C@@H]2c3cc(CC(=O)N[C@@H]4CCCc5ccccc54)ccc3OC(C)(C)[C@H]2O)cc1` [Example 2, 2-((3S,4R)-4-{[(4-ethylphenyl)sulfonyl]amino}-3-hydroxy-2,2-dimethyl-3,4-dihydro-2H-chromen-6-yl)-N-[(1R)-1,2,3,4-tetrahydronaphth-1-yl]acetamide], the pIC50 at Kv 1.5-potassium channel is 5.70. Moreover, the FRP prolongation in test [1] was found to be 20 ms.
As for `CCc1ccc(S(=O)(=O)N(CC(C)(C)C)C2c3cc(CC(=O)NCc4ccccc4)ccc3OC(C)(C)C2O)cc1` (stereo not shown) [Example 4, N-benzyl-2-{4-[[(4-ethylphenyl)sulfonyl](neopentyl)amino]-3-hydroxy-2,2-dimethyl-3,4-dihydro-2H-chromen-6-yl}acetamide], the pIC50 at Kv 1.5-potassium channel was 5.80. The FRP prolongation in test [1] is 17 ms.
For `CCc1ccc(S(=O)(=O)N(CC(C)(C)C)[C@@H]2c3cc(CC(=O)NCc4ccccc4)ccc3OC(C)(C)[C@H]2O)cc1` [Example 7] the same measures were 5.82 and 24 ms.
On to `CCc1ccc(S(=O)(=O)N(CC(C)(C)C)[C@H]2c3cc(CC(=O)NCc4ccccc4)ccc3OC(C)(C)[C@@H]2O)cc1` [Example 8], for which the pIC50 at Kv 1.5-potassium channel was 6.30. Also, the FRP prolongation in test [1] stood at 17 ms.
For `CCc1ccc(S(=O)(=O)N[C@@H]2c3cc(CC(=O)N[C@H]4CCCc5ccccc54)ccc3OC(C)(C)[C@H]2O)cc1` [Example 9], in that order: 5.54 and 30 ms.
For `CCc1ccc(S(=O)(=O)N(CC(C)(C)C)C2c3cc(CC(=O)NCCc4ccccc4)ccc3OC(C)(C)C2O)cc1` (stereo not shown) [Example 10] the same measures were 5.80 and 20 ms.
For `CCc1ccc(S(=O)(=O)NC2c3cc(CC(=O)N4CCN(c5ccccc5)CC4)ccc3OC(C)(C)C2O)cc1` (stereo not shown) [Example 16], in that order: 5.20 and 20 ms.
